The values below come from ChEMBL document CHEMBL1141425, “Cytotoxic clerodane diterpenoids and their hydrolysis products from Casearia nigrescens from the rainforest of Madagascar” (J Nat Prod, 2007).

In general, IC50 refers to the concentration at which inhibition is half-maximal.

SMILES strings stand for the structures.

The test has as its system A2780. The experiment in a line: Cytotoxicity against human A2780 cells. The format is cell-based.
`C=CC(=C)CC[C@]1(C)[C@H](C)C[C@H](O)[C@@]2(C=O)C(C=O)=C[C@H](OC(=O)CCC)C[C@@H]12` [CASEANIGRESCEN D2]: the IC50 amounted to 1500 nM. This lies in the single-digit micromolar range.

On to `C=CC(=C)CC[C@]1(C)[C@H](C)C[C@H](O)[C@@]23C(=C[C@H](OC(=O)CCC)C[C@@H]12)[C@@H](OC(C)=O)O[C@H]3OC(C)=O` [CASEANIGRESCEN D], for which the IC50 is 1000 nM.

For `C=CC(=C)CC[C@]1(C)[C@H](C)[C@@H](OC(C)=O)[C@H](O)[C@@]2(C=O)C(C=O)=C[C@H](OC(=O)CCC)C[C@@H]12`, the IC50 is 3500 nM.

With `C=CC(=C)CC[C@]1(C)[C@H](C)[C@@H](O)[C@H](OC(C)=O)[C@@]23C(=C[C@H](OC(=O)CCC)C[C@@H]12)[C@@H](OC(C)=O)O[C@H]3OC(C)=O` [CASEANIGRESCEN C], the IC50 was 1000 nM.

With `C=CC(=C)CC[C@]1(C)[C@H](C)[C@@H](OC(C)=O)[C@H](O)[C@@]23C(=C[C@H](OC(=O)CCC)C[C@@H]12)[C@@H](OC(C)=O)O[C@H]3OC(C)=O` [CASEANIGRESCEN A], the IC50 amounted to 1400 nM.

Compound `C=CC(=C)CC[C@]1(C)[C@H](C)[C@@H](O)[C@H](O)[C@@]23C(=C[C@H](OC(=O)CCC)C[C@@H]12)[C@@H](OC(C)=O)O[C@H]3OC(C)=O` [CASEANIGRESCEN B] registered an IC50 of 830 nM.
